Source: article PMC5962729 (Frontiers in Pharmacology, 2018)
Where two headings read alike, the source gives them in different places.

Legend:
[1] = Pharmacokinetic study of YCHD components and phase II metabolites in normal rats (UHPLC-MS/MS, sulfatase enzymolysis); format: in vivo, rat; details: for Tmax / Cmax / MRT inf / half-life / CL/F / Vd/F: rat; for MRT inf: read-out: MRT (0-∞) (converted); for half-life: read-out: t1/2z; for CL/F: read-out: CLz/F; for Vd/F: read-out: Vz/F
Procedure: To explore the pharmacokinetic properties of YCHD following intragastric administration in rats, a rapid and sensitive method involving the use of UHPLC-MS/MS (Agilent 6460 series, Agilent Technologies, Santa Clara, CA, United States) was developed and validated for the simultaneous quantification of 10 active components of rat plasma. The quantification was conducted in ESI negative ionization mode, and the mass spectrometry conditions were as follows: capillary voltage, 3500 V; gas flow, 12 L/min; nebulizer, 40 psi; gas temperature, 350°C; and delta EMV (-), 400. A 5 μL extraction sample was injected into the column (Agilent SB-C18 column, 2.1 mm × 50 mm, 1.8 μm) and eluted at 0.4 mL/min with a gradient elution of water (with 0.4% v/v formic acid) (A) and acetonitrile (B) (0–3 min, 5–60% B; 3–5 min, 60–90% B; 5–5.1 min, 90–5% B; and re-equilibration for 3 min).
To each 50 μL plasma sample, 10 μL of internal standard solution (paeoniflorin, 1000 ng/mL) and 300 μL of a mixed solution of methanol and acetonitrile (v/v, 1:1; containing 1% formic acid) were added. Subsequently, the solution was vortex mixed for 5 min. After centrifugation at 15,000 rpm for 5 min, the supernatant was transferred completely into a tube, before being evaporated under N2 at 40°C. The residue was then dissolved in 50 μL of 50% methanol–water (v/v, 1:1) through vortexing for 5 min, after centrifugation at 15,000 rpm for 10 min. Finally, 5 μL of the supernatant sample was injected into the UHPLC-MS/MS system for analysis.
The rats were randomly divided into two groups (n = 5 for each group). […] After 24 h, the two groups of rats received a single oral dose of YCHD (12 g/kg). Blood was collected in heparinized tubes at 5, 15, 30, 45, 60, 120, 240, 360, 480, 720, and 1440 min after administration. The blood samples were centrifuged at 4000 rpm for 10 min, and the supernatant plasma was harvested. Plasma samples (50 μL) were immediately processed as outlined in Section “Chromatographic and Mass Spectrometry Conditions.”
Additional plasma samples (50 μL) were enzymatically hydrolyzed with 50 μL of enzyme solution (65.86 mg of sulfatase, dissolved in 2 mL of sodium acetate buffer, pH 5.0) for phase II metabolite quantification, in accordance with our previous study ([Ding et al., 2012]). After being vortex mixed for 5 min, the mixture was incubated at 37°C for 30 min and then returned to room temperature. Subsequently, the samples were processed as outlined in Section “Chromatographic and Mass Spectrometry Conditions” for UHPLC-MS/MS analysis. During routine analysis, each analytical run included six blank plasma samples, a set of calibration samples, a set of QC samples, and unknowns.
All data are presented as mean ± SD. A one-way analysis of variance was used to compare data between two groups using SPSS (Version 21.0). The differences were considered to be statistically significant when p < 0.05 and highly significant when p < 0.01 or p < 0.001. Pharmacokinetic data analysis was performed using DAS 2.1.1 software (Mathematical Pharmacology Professional Committee of China, Shanghai, China).
After sulfatase-aided enzymolysis, all the phase II metabolites could transform into their prototypes, including rhein, emodin, genipin, and capillarisin. The specific contents of the phase II metabolites of these components were detected indirectly by evaluating the content difference of their prototypes in samples after enzymolysis and before enzymolysis
CG = Ca −[MG × (CGG/MGG + CGe/MGe)]
Ca, CGG, and CGe represent the concentration of genipin, genipin-1-β-D-gentiobioside, and geniposide after enzymolysis of sulfatase, respectively. MG, MGG-, and MGe represent the mass of genipin, genipin-1-β-D-gentiobioside, and geniposide, respectively. The pharmacokinetic curves of phase II metabolites are illustrated in Figure 4B.

OATP1A4 = assay: Expression level of OATP1A4 in rat liver by UHPLC-MS/MS; format: in vivo
Procedure: Male Sprague Dawley rats (230 ± 20 g, 6–8 weeks of age) were purchased from B&K Laboratory Animal, Corp. Ltd. (Shanghai, China) and fed in the Laboratory Animal Center of Shanghai University of Traditional Chinese Medicine. All rats were allowed to acclimatize for 3 days before experimentation. The rats were randomly divided into six groups (n = 5 for each group). […] The rats in groups 4, 5, and 6 were intragastrically administered YCHD every 24 h for 10 consecutive days. The rats in group 3 were orally administered UDCA at a dose of 100 mg/kg every 24 h for 10 consecutive days, which is well-documented to treat induced liver injury and cholestasis ([Chen et al., 2016]; [Cao et al., 2017]). Moreover, groups 1 and 2 were intragastrically treated with physiological saline (0.9%) at a dose of 1 mL/100 g. […] At the end of the experiment, all rats were euthanized by CO2 inhalation. The serum samples were stored at -70°C until analysis, and liver samples were isolated and stored at -70°C for further analysis, whereas the central part of the right large lobe of the liver was used for histological examination. […]
Total membrane protein was isolated (in triplicate) from liver tissue according to the Native Membrane Protein Extraction Kit protocol. Subsequently, protein concentrations were determined by applying the BCA Protein Assay Kit. […]

[2] = system: ANIT-induced intrahepatic cholestasis; assay: Bile flow rate in ANIT-induced cholestatic rats; format: in vivo, rat; details: UDCA 100 mg/kg i.g. + ANIT 50 mg/kg; over 360 min at 48 h after ANIT; not significant vs model
Procedure: Ltd. (Shanghai, China) and fed in the Laboratory Animal Center of Shanghai University of Traditional Chinese Medicine. […] The rats were randomly divided into six groups (n = 5 for each group). […] [Cao et al., 2017]). […] Before and 24 h after modeling, retro-orbital blood samples were collected in a coagulation tube, and they were then centrifuged at 4°C for 10 min (4000 rpm) to obtain the serum for the assay of ALT, AST, TBIL, DBIL, and TBA. At the end of the experiment, all rats were euthanized by CO2 inhalation. The serum samples were stored at -70°C until analysis, and liver samples were isolated and stored at -70°C for further analysis, whereas the central part of the right large lobe of the liver was used for histological examination.  FIGURE 2 The scheme of the animal experimental design. […] UDCA, positive control group treated with ursodeoxycholic acid (UDCA) (100 mg/kg, […].); […] A closed IV catheter system (Becton Dickinson, United States) was applied to cannulate the bile duct, and the bile specimens were collected into tubes at 2 h intervals for 6 h. The collected serum samples were maintained at room temperature to dissolve. The serum levels of ALT, AST, TBIL, DBIL, and TBA were then determined using a chemistry analyzer system (HITACHI 7080, Japan).

[3] = Control group (normal rats), single oral YCHD 12 g/kg, plasma
[4] = Sprague Dawley, plasma, po, 12 g/kg, in normal and cholestatic rats after oral administration of YCHD
[5] = plasma, po, 12 g/kg, Control group (normal rats), single oral YCHD 12 g/kg, plasma
[6] = in vivo, Control group (normal rats), single oral YCHD 12 g/kg, plasma
[7] = Sprague Dawley, Control group (normal rats), single oral YCHD 12 g/kg, plasma
[8] = Sprague Dawley, in vivo, Control group (normal rats), single oral YCHD 12 g/kg, plasma

For CC(=O)c1ccc(O)cc1 [4-hydroxyacetophenone, 4-Hydroxyacetophenone], the “AUC(0-∞)” value [1, 3] was 192358.2 ± 102858.3 µg·min/L, the Ka [1, 3] was 406.1 ± 333.9 min⁻¹ and the Tmax [1, 4] was no more than 0.45 h. The Tmax [1, 5] was 0.25 h, the Cmax [1, 3] was 1580 ± 133 ng/mL and the MRT inf [1, 3] was 4.82 h. The half-life [1, 3] was 13.8 ± 13.6 h.
In the case of COC(=O)C1=CO[C@@H](O[C@@H]2O[C@H](CO)[C@@H](O)[C@H](O)[C@H]2O)[C@@H]2C(CO)=CC[C@H]12 [Geniposide], the “AUC(0-∞)” value [1, 3] is reported as 384279.8 ± 184237.0 µg·min/L, the Ka [1, 3] is reported as 702.9 ± 413.6 min⁻¹ and the Tmax ([1]; Sprague Dawley, in vivo, 12 g/kg, in normal and cholestatic rats after oral administration of YCHD) is reported as no more than 0.45 h. It also gave a Cmax [1, 6] of 524 ± 59.4 ng/mL, a Tmax [1, 6] of 0.3 h and a CL/F [1, 6] of 122 ± 22 mL/min/kg. The MRT inf [1, 6] was 3.36 h, the Vd/F [1, 6] was 21.1 ± 12 L/kg and the half-life [1, 6] was 1.9 ± 0.765 h.
For O=C(O)C1=CO[C@@H](O[C@@H]2O[C@H](CO)[C@@H](O)[C@H](O)[C@H]2O)[C@@H]2C(CO)=CC[C@H]12 [Geniposidic acid], the “AUC(0-∞)” value [1, 3] was 1374849.8 ± 734718.1 µg·min/L, the Ka [1, 3] was 11255.3 ± 11024.4 min⁻¹ and the Vd/F [1, 7] was 8.6 ± 3.2 L/kg. For the same compound, the half-life [1, 7] was 3.23 ± 0.755 h, the Tmax [1, 6] was 4.4 h and the Cmax [1, 3] was 449 ± 34.2 ng/mL. For the same compound, the CL/F [1, 3] was 30 ± 4 mL/min/kg and the MRT inf [1, 3] was 5.93 h.
With O=C(O)c1cc(O)c2c(c1)C(=O)c1cccc(O)c1C2=O [Rhein] the “AUC(0-∞)” value [1, 3] was 874792.3 ± 503744.0 µg·min/L, the Ka [1, 3] was 4443.6 ± 454.1 min⁻¹ and the Tmax [1, 4] was no more than 0.45 h. The Tmax [1, 5] was 0.25 h, the Cmax [1, 3] was 3040 ± 397 ng/mL and the CL/F [1, 3] was 41 ± 6 mL/min/kg. For the same compound, the MRT inf [1, 3] was 2.01 h, the Vd/F [1, 3] was 3.79 ± 0.53 L/kg and the half-life [1, 3] was 1.06 ± 0.00833 h.
With COC(=O)C1=COC(OC2OC(CO)C(O)C(O)C2O)C2C(CO)=CC(O)C12 (centres unmarked) [Scandoside methyl ester] the “AUC(0-∞)” value [1, 3] was 233687.2 ± 127559.1 µg·min/L, the Ka [1, 3] was 477.5 ± 133.9 min⁻¹ and the Cmax [1, 8] was 127 ± 8.9 ng/mL. It also gave a Tmax [1, 8] of 0.35 h, a CL/F [1, 8] of 184 ± 33 mL/min/kg and an MRT inf [1, 8] of 6.08 h. The Vd/F [1, 6] was 62 ± 30.8 L/kg and the half-life [1, 6] was 3.82 ± 1.76 h.
For C[C@H](CCC(=O)O)[C@H]1CC[C@H]2[C@@H]3[C@@H](O)C[C@@H]4C[C@H](O)CC[C@]4(C)[C@H]3CC[C@]12C [UDCA, Ursodeoxycholic acid], the “Oatp1a4 expression level in rat liver” value (OATP1A4; UDCA group, ANIT-treated rats, mean ± S.D.) was 0.49±0.11 fmol/μg protein, the “OATP1A4 expression upregulated, fold” value (OATP1A4; UDCA-treated cholestatic rats, liver, not statistically significant) was 1.3 fold and the bile flow rate [2] was 0.29 ± 0.12 μL/min⋅100 g B.W.
With COC(=O)C1=CO[C@@H](O[C@@H]2O[C@H](CO[C@@H]3O[C@H](CO)[C@@H](O)[C@H](O)[C@H]3O)[C@@H](O)[C@H](O)[C@H]2O)[C@@H]2C(CO)=CC[C@H]12 [genipin-1-β-D-gentiobiodide, Genipin-1-β-D-gentiobiodide] the “AUC(0-∞)” value [1, 3] was 38557.0 ± 20175.1 µg·min/L, the Ka [1, 3] was 95.5 ± 16.2 min⁻¹ and the Tmax [1, 4] was no more than 0.45 h. It also gave a Vd/F [1, 7] of 170 ± 52.3 L/kg, a half-life [1, 7] of 1.93 ± 0.538 h and a Tmax [1, 5] of 0.35 h. For the same compound, the Cmax [1, 3] was 106 ± 3.9 ng/mL, the CL/F [1, 3] was 1040 ± 56 mL/min/kg and the MRT inf [1, 3] was 2.13 h.
